This is an account of results in PubChem BioAssay (NCI).

Where “and” joins values, the source holds several entries; their conditions need not be identical. Identical values can stand only once.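 Cultured in 96-well plates, cells were exposed to test compound for 48 hours across five concentrations. Abbreviation: GI50, concentration required for 50% inhibition of growth. TGI denotes the concentration required for complete inhibition of growth.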 Some results are limits rather than exact numbers.

Common to all, as to assay: inhibition of tumour cell growth, NCI panel, 48 h
The subject of experiment [1] is KM12 colon.
The test system of experiment [2] is K-562 leukemia.
The test system of experiment [3] is IGROV1 ovarian.
The subject of experiment [4] is NCI-H460 lung.
Experiment [5] concerns RXF 393 renal.
Experiment [6] deals with HCC-2998 colon.
Experiment [7] deals with UO-31 renal.
Experiment [8] relates to OVCAR-3 ovarian.
Experiment [9] relates to CAKI-1 renal.
For experiment [10], the system named is MCF7 breast.

For the molecule `CN1N=C(c2ccncc2)OC1c1ccccc1F` (stereo not drawn), the TGI in experiment [1], in experiment [2], in [3], in experiment [4], in experiment [5] and in experiment [6] was more than 100 µM in each case. For the same molecule, the TGI in [7] and in [8] was more than 100 µM each time.

`CN1CCN(C2=C(Cl)C3(OCCS3)C(F)(F)C2(F)F)CC1` (stereo not drawn): the TGI in [2], in [3], in experiment [5], in experiment [9], in experiment [10] and in experiment [7] was more than 100 µM each time. Besides, the TGI in experiment [8] was more than 100 µM.

As for `c1ccc2c(c1)CCCC/C2=N/OCC1CO1` (stereo not drawn), the TGI in experiment [1], in experiment [2], in experiment [3], in experiment [4], in experiment [5] and in [6] was more than 100 µM throughout.

As for `CC1=NNC(=O)C1C1CC(c2c[nH]c3ccccc23)=NN=C1Cl` (stereo not drawn), the TGI in experiment [1] is 69.3 µM; in experiment [2], 88.6 µM; in experiment [3], more than 100 µM; in experiment [4], more than 100 µM; in [5], more than 100 µM; in experiment [9] it was more than 100 µM. Also, the TGI in experiment [7] and in [8] was more than 100 µM each time.

Regarding `O=C(O)/C=C\C(=O)Nc1ccc(S(=O)(=O)c2ccc(NC(=O)/C=C\C(=O)O)cc2)cc1`, the TGI in experiment [1], in experiment [2], in [3], in experiment [9], in experiment [7] and in experiment [8] was more than 100 µM in each case.

In the case of `COC(=O)[C@H](Cc1ccccc1)NC(=O)N(CCC#N)CCN(C(=O)N[C@@H](Cc1ccccc1)C(=O)OC)c1ccccc1`, the TGI in experiment [1] was more than 100 µM; in experiment [3] it was 42.9 µM; in experiment [5], 37.7 µM; in [9], 41 µM; in experiment [6] it was more than 100 µM; in experiment [10], more than 100 µM. For the same molecule, the TGI came out at 31.9 µM in experiment [7] and 43.4 µM in experiment [8].

Regarding `COc1cc([N+](=O)[O-])c(OC)c2c(Nc3ccc(S(=O)(=O)O)c4cc(S(=O)(=O)O)cc(S(=O)(=O)O)c34)cc(C)nc12`, the TGI in [1], in experiment [3], in experiment [5], in experiment [9], in experiment [10] and in experiment [7] was more than 100 µM in each case. In addition, the TGI in [8] was more than 100 µM.

As to `O=C1c2cccc(O)c2C(=O)c2c(O)cc(CO)cc21`, the TGI in experiment [1], in experiment [4], in experiment [5], in experiment [9] and in [6] was more than 100 µM in each case.

`C=CCN1C(=O)/C(=C/c2ccc(C)cc2)N=C1SC1OC(COC(C)=O)C(OC(C)=O)C(OC(C)=O)C1OC(C)=O` (stereo not drawn): the TGI in experiment [1] is > 100 µM and 17.9 µM; in experiment [2] it was more than 100 µM; in experiment [3], more than 100 µM; in experiment [4], more than 100 µM; in experiment [5], > 39.5 µM and 61.6 µM; in [9], > 100 µM and 63.4 µM. Besides, the TGI in experiment [6], in [10] and in experiment [8] was more than 100 µM each time. Besides, the GI50 in experiment [2] was > 73.9 µM and 29.9 µM; in experiment [3], > 100 µM and 24.7 µM; in experiment [9], 4.88 µM and 11.2 µM; in experiment [6], > 100 µM and 35.6 µM; in [8], > 100 µM and 29.4 µM.

With `COC(=O)C1(O)C(c2ccccc2)=NC2(C)CCCC21` (stereo not drawn), the TGI in [1], in experiment [2], in experiment [3], in [4], in experiment [5] and in experiment [9] was more than 100 µM throughout. In addition, the TGI in [6], in [7] and in [8] was more than 100 µM in each case.

For the molecule `Cc1c(-c2ccccc2)[nH]n(C2=NCCN2)c1=O`, the TGI in experiment [1], in experiment [2], in experiment [3], in [4], in [5] and in [9] was more than 100 µM throughout. Further, the TGI in experiment [10], in experiment [7] and in [8] was more than 100 µM throughout.

On to `COc1ccc(/C=N/n2c(C)nc3c(sc(=S)n3-c3ccccc3)c2=O)cc1`, for which the TGI in experiment [1] was more than 100 µM; in experiment [2], 81.2 µM; in experiment [3], more than 100 µM; in experiment [4] it was more than 100 µM; in [6], more than 100 µM; in [7], more than 100 µM. Moreover, the TGI in experiment [8] was more than 100 µM.

`CC#CC(O)(C(=O)OC1CC(C)N(C)C(C)(C)C1)C1CCCC1` (stereo not drawn): the TGI in experiment [1], in experiment [2], in experiment [3], in experiment [5], in [9] and in experiment [6] was more than 100 µM throughout. Besides, the TGI in experiment [10], in experiment [7] and in [8] was more than 100 µM in each case.

Turning to `C/C(=C\CO)CC/C=C(\C)CNc1ccc([N+](=O)[O-])cc1`, the TGI in experiment [1] is 64.2 µM; in experiment [2], 66.5 µM; in experiment [3], more than 100 µM; in experiment [4], more than 100 µM; in [5], more than 100 µM; in experiment [9] it was more than 100 µM. The TGI in [10] is more than 100 µM; in experiment [7], 45.9 µM; in experiment [8], 48.2 µM.

As for `Cc1cccc(/C(Br)=C2/OC(=O)c3ccccc32)c1`, the TGI in experiment [1], in experiment [3], in [4], in [5], in [9] and in [6] was more than 100 µM each time. The TGI in experiment [10] and in [8] was more than 100 µM throughout.

In the case of `CC(C)C(N)C(=O)NC(CCC(=O)NCCCCC(N)C(=O)NCCCNc1ccc([N+](=O)[O-])c2[nH]c3ccccc3c(=O)c12)C(N)=O` (stereo not drawn), the TGI is more than 100 µM in [1]; more than 100 µM in experiment [2]; more than 100 µM in experiment [4]; 46.5 µM in experiment [5]; more than 100 µM in experiment [9]; more than 100 µM in experiment [6]. The TGI in [7] and in [8] was more than 100 µM throughout.
